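Assay format: 96-well plates, 48-hour exposure. Abbreviation: GI50, concentration required for 50% inhibition of growth.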 The source made the active and inactive calls. No stated cut-off is given here; in the data, active = GI50 up to about 1.1 µM and inactive = higher.
Experiments:
Assay in all cases: NCI anticancer screen, dose series, 48 h
[1] = test system: M19-MEL
[2] = test system: EKVX
[3] = test system: DMS-114
[4] = test system: OVCAR-4
[5] = test system: LXFL 529
[6] = test system: NCI-H23
[7] = test system: OVCAR-3
[8] = test system: SK-MEL-2
[9] = test system: SF-268
[10] = test system: KM12
[11] = test system: NCI-H226
[12] = test system: SF-539
[13] = test system: LOX IMVI
[14] = test system: HOP-92
[15] = test system: RPMI-8226
[16] = test system: UACC-257
[17] = test system: HOP-18
[18] = test system: KM-20L2
[19] = test system: SK-MEL-5
[20] = test system: OVCAR-8
[21] = test system: HCC 2998
[22] = test system: RXF 393
[23] = test system: SF-295
[24] = test system: HOP-62
[25] = test system: OVCAR-5
[26] = test system: MOLT-4
[27] = test system: HCT-116
[28] = test system: Malme-3M
[29] = test system: NCI-H460
[30] = test system: SW-620
[31] = test system: XF498
[32] = test system: HCT-15
[33] = test system: CCRF-CEM
[34] = test system: ACHN
[35] = test system: HL-60
[36] = test system: TK-10
[37] = test system: CAKI-1
[38] = test system: SNB-19
[39] = test system: DMS-273
[40] = test system: A498
[41] = test system: SNB-75
[42] = test system: SK-MEL-28
[43] = test system: HT-29
[44] = test system: DLD-1
[45] = test system: SN12C
[46] = test system: A549
[47] = test system: M14
[48] = test system: UO-31
[49] = test system: UACC-62
[50] = test system: 786-0
[51] = test system: SR
[52] = test system: SNB-78
[53] = test system: IGROV-1
[54] = test system: K562
[55] = test system: SK-OV-3
[56] = test system: RXF 631
[57] = test system: NCI-H522
[58] = test system: U-251

CC(=O)Nc1ccc(/C=N\N2C(=O)c3ccccc3C2=O)cc1
GI50 [1]: > 100 µM (inactive) | GI50 [2]: > 100 µM (inactive) | GI50 [3]: > 100 µM (inactive) | GI50 [4]: > 100 µM (inactive) | GI50 [5]: > 100 µM (inactive) | GI50 [6]: > 100 µM (inactive) | GI50 [7]: > 100 µM (inactive) | GI50 [8]: > 100 µM (inactive) | GI50 [9]: > 100 µM (inactive) | GI50 [10]: > 100 µM (inactive) | GI50 [11]: > 100 µM (inactive) | GI50 [12]: > 100 µM (inactive) | GI50 [13]: > 100 µM (inactive) | GI50 [14]: > 100 µM (inactive) | GI50 [15]: > 100 µM (inactive) | GI50 [16]: > 100 µM (inactive) | GI50 [17]: > 100 µM (inactive) | GI50 [18]: > 100 µM (inactive) | GI50 [19]: > 100 µM (inactive) | GI50 [20]: > 100 µM (inactive) | GI50 [21]: > 100 µM (inactive) | GI50 [22]: > 100 µM (inactive) | GI50 [23]: > 100 µM (inactive) | GI50 [24]: > 100 µM (inactive) | GI50 [25]: > 100 µM (inactive) | GI50 [26]: > 100 µM (inactive) | GI50 [27]: > 100 µM (inactive) | GI50 [28]: > 100 µM (inactive) | GI50 [29]: > 100 µM (inactive) | GI50 [30]: > 100 µM (inactive) | GI50 [31]: > 100 µM (inactive) | GI50 [32]: > 100 µM | GI50 [33]: > 100 µM (inactive) | GI50 [34]: > 100 µM (inactive) | GI50 [35]: > 100 µM (inactive) | GI50 [36]: > 100 µM (inactive) | GI50 [37]: > 100 µM (inactive) | GI50 [38]: > 100 µM (inactive) | GI50 [39]: > 100 µM (inactive) | GI50 [40]: > 100 µM (inactive) | GI50 [41]: > 100 µM (inactive) | GI50 [42]: > 100 µM (inactive) | GI50 [43]: > 100 µM (inactive) | GI50 [44]: > 100 µM (inactive) | GI50 [45]: > 100 µM (inactive) | GI50 [46]: > 100 µM (inactive) | GI50 [47]: > 100 µM (inactive) | GI50 [48]: > 100 µM (inactive) | GI50 [49]: > 100 µM (inactive) | GI50 [50]: > 100 µM (inactive) | GI50 [51]: > 100 µM (inactive) | GI50 [52]: > 100 µM (inactive) | GI50 [53]: > 100 µM (inactive) | GI50 [54]: > 100 µM (inactive)

O=C1CCCCC2N(C(c3ccccc3)c3ccccc3)CC[C@@]12c1ccccc1.O=C1CCCC[C@H]2N(C(c3ccccc3)c3ccccc3)CC[C@@]12c1ccccc1 (stereo not given in full)
GI50 [1]: > 10 µM (inactive) | GI50 [2]: 7.73 µM (inactive) | GI50 [3]: 5.19 µM (inactive) | GI50 [4]: 4.21 µM (inactive) | GI50 [6]: 4.8 µM (inactive) | GI50 [7]: > 10 µM (inactive) | GI50 [9]: > 10 µM (inactive) | GI50 [10]: > 10 µM (inactive) | GI50 [11]: 6.38 µM (inactive) | GI50 [12]: > 10 µM (inactive) | GI50 [13]: 6.3 µM (inactive) | GI50 [14]: 2.56 µM (inactive) | GI50 [15]: 2.77 µM (inactive) | GI50 [16]: 6.14 µM (inactive) | GI50 [55]: > 10 µM (inactive) | GI50 [18]: > 10 µM (inactive) | GI50 [19]: 4.57 µM (inactive) | GI50 [20]: > 10 µM (inactive) | GI50 [22]: 4.32 µM (inactive) | GI50 [23]: > 10 µM (inactive) | GI50 [25]: > 10 µM (inactive) | GI50 [26]: 3.06 µM (inactive) | GI50 [27]: 2.99 µM (inactive) | GI50 [29]: 9.55 µM (inactive) | GI50 [32]: 7.93 µM | GI50 [33]: 6.12 µM (inactive) | GI50 [34]: 8.87 µM (inactive) | GI50 [35]: 2.87 µM (inactive) | GI50 [36]: > 10 µM (inactive) | GI50 [37]: 4.83 µM (inactive) | GI50 [38]: > 10 µM (inactive) | GI50 [56]: 3.88 µM (inactive) | GI50 [39]: > 10 µM (inactive) | GI50 [40]: > 10 µM (inactive) | GI50 [41]: > 10 µM (inactive) | GI50 [42]: > 10 µM (inactive) | GI50 [57]: 3.68 µM (inactive) | GI50 [43]: 4 µM (inactive) | GI50 [45]: > 10 µM (inactive) | GI50 [46]: > 10 µM (inactive) | GI50 [47]: > 10 µM (inactive) | GI50 [48]: 8.05 µM (inactive) | GI50 [49]: > 10 µM (inactive) | GI50 [52]: > 10 µM (inactive) | GI50 [53]: > 10 µM (inactive) | GI50 [58]: > 10 µM (inactive) | GI50 [54]: 4.27 µM (inactive)

BrC1=CC=C2NCCCCCC/N=C3\C=CC(Br)=CC=C3NCCCCCC/N=C\2C=C1
GI50 [1]: > 25.5 µM (inactive) | GI50 [2]: > 25.5 µM (inactive) | GI50 [3]: > 25.5 µM (inactive) | GI50 [4]: > 25.5 µM (inactive) | GI50 [6]: > 25.5 µM (inactive) | GI50 [7]: > 25.5 µM (inactive) | GI50 [8]: > 25.5 µM (inactive) | GI50 [9]: > 25.5 µM (inactive) | GI50 [10]: > 25.5 µM (inactive) | GI50 [11]: > 25.5 µM (inactive) | GI50 [12]: > 25.5 µM (inactive) | GI50 [13]: > 25.5 µM (inactive) | GI50 [14]: > 25.5 µM (inactive) | GI50 [15]: > 25.5 µM (inactive) | GI50 [16]: > 25.5 µM (inactive) | GI50 [55]: > 25.5 µM (inactive) | GI50 [18]: > 25.5 µM (inactive) | GI50 [19]: > 25.5 µM (inactive) | GI50 [20]: > 25.5 µM (inactive) | GI50 [21]: > 25.5 µM (inactive) | GI50 [22]: > 25.5 µM (inactive) | GI50 [23]: > 25.5 µM (inactive) | GI50 [24]: > 25.5 µM (inactive) | GI50 [25]: > 25.5 µM (inactive) | GI50 [26]: > 25.5 µM (inactive) | GI50 [27]: > 25.5 µM (inactive) | GI50 [28]: > 25.5 µM (inactive) | GI50 [29]: > 25.5 µM (inactive) | GI50 [30]: > 25.5 µM (inactive) | GI50 [32]: > 25.5 µM | GI50 [33]: > 25.5 µM (inactive) | GI50 [34]: > 25.5 µM (inactive) | GI50 [35]: > 25.5 µM (inactive) | GI50 [36]: > 25.5 µM (inactive) | GI50 [37]: > 25.5 µM (inactive) | GI50 [38]: > 25.5 µM (inactive) | GI50 [56]: > 25.5 µM (inactive) | GI50 [39]: > 25.5 µM (inactive) | GI50 [40]: > 25.5 µM (inactive) | GI50 [41]: > 25.5 µM (inactive) | GI50 [42]: > 25.5 µM (inactive) | GI50 [57]: > 25.5 µM (inactive) | GI50 [43]: > 25.5 µM (inactive) | GI50 [44]: > 25.5 µM (inactive) | GI50 [45]: > 25.5 µM (inactive) | GI50 [46]: > 25.5 µM (inactive) | GI50 [47]: > 25.5 µM (inactive) | GI50 [48]: > 25.5 µM (inactive) | GI50 [49]: > 25.5 µM (inactive) | GI50 [50]: > 25.5 µM (inactive) | GI50 [52]: > 25.5 µM (inactive) | GI50 [53]: > 25.5 µM (inactive) | GI50 [58]: > 25.5 µM (inactive) | GI50 [54]: > 25.5 µM (inactive)

From ChEMBL document CHEMBL1201862, “PubChem BioAssay data set” (2004)
